The values below come from US11242337B2, “Compounds useful for treating gastrointestinal tract disorders” (Ardelyx, Inc., priority 2017, dated 2022).

The test system of one data set is gastrointestinal transit. The experiment in a line: Restoration of gastrointestinal motility in opioid induced constipation (loperamide). Type of data set: in vivo, mice. The settings on record: vehicle orally, loperamide (0.3 to 6 mg/kg) subcutaneously, 30-minute period. On the procedure: Approximately eight-week old, female, CD1 […] are purchased from Envigo (Livermore, Calif.), are housed 4 per cage and acclimated for at least 48 hours before study initiation. Animals are fed standard laboratory rodent chow Harlan Teklad Global 2018 (Madison, Wis.). Animals have ad libitum access to food and water for the duration of the acclimation period and are maintained in a temperature and humidity controlled room on a standard light/dark cycle of 6 AM to 6 PM. Following an overnight fast, with free access to water, animals are dosed by oral gavage with varying doses of test compound or vehicle (3 mM HCl, 0.01% Tween80), at a dose volume of 5 mL/kg. […] For an individual animal, the length travels by the Evans Blue dye front is divided by the length of the whole small intestine, measured from the pylorus to the cecum, and multiplied by 100, to provide the distance of the small intestine travelled by the dye as a percentage.

The conditions of data set [1]: human absorption data, from Ertl et al., J. Med. Chem, 2000; cited from earlier work.

With `CN(C)C(=O)C(CCN1CCC(O)(c2ccc(Cl)cc2)CC1)(c1ccccc1)c1ccccc1` [loperamide, reference compound], in the data set on gastrointestinal transit, the “length of the small intestine travelled by the Evans Blue dye front” value was around 25%.

Take `O=C(O)c1cc(/N=N/c2ccc(S(=O)(=O)Nc3ccccn3)cc2)ccc1O` [sulfasalazine, reference compound]: the “% FA” value in data set [1] is on record as 12%.

In the case of `CCN1CCCC1CNC(=O)c1cc(S(N)(=O)=O)ccc1OC` (stereo not shown) [sulpiride], in data set [1], the “% FA” value is given as 36%.

On to `NC[C@H]1CC[C@H](C(=O)O)CC1` [tranexamic acid], for which, in data set [1], the “% FA” value is 55%.
